Results taken from article PMC10623572, “Subtle Structural Modification of a Synthetic Cannabinoid Receptor Agonist Drastically Increases its Efficacy at the CB1 Receptor” (ACS Chemical Neuroscience, 2023).

Assays:
[1] = target: T1, CB1R (presynaptic, mouse hippocampus) (Mus musculus, UniProt P47746); experiment: fEPSP field recording, inhibition of glutamate release in hippocampal slices; settings: agonist; native presynaptic receptor, downstream read-out; 31-32 °C; 50 µM caffeine; reversed by AM251
T1 construct: gene Cnr1; native receptor in hippocampal brain slices

[2] = target: T2, CB1R (CB1R-Rluc) (Homo sapiens, UniProt P21554); experiment: BRET CB1R-Rluc/beta-arrestin 2-Venus recruitment; format: cell-based
T2 construct: gene CNR1; Rluc-fused receptor in HEK-293T cells; with mVenus-Gi1 plus Gbeta1/Ggamma2, or beta-arrestin 2-Venus plus GRK2
Excerpt: BRET CB1R-Rluc/beta-arrestin 2-Venus recruitment on CB1R (CB1R-Rluc)

[3] = target: T2, CB1R (CB1R-Rluc); experiment: BRET CB1R-Rluc/Gi1-Venus engagement; format: cell-based
[4] = read-out: 5F-MMB-PICA (converted)
[5] = read-out: 5F-SDB-006 (converted)

T2 sequence (P21554 whole entry, the tested form may be a part): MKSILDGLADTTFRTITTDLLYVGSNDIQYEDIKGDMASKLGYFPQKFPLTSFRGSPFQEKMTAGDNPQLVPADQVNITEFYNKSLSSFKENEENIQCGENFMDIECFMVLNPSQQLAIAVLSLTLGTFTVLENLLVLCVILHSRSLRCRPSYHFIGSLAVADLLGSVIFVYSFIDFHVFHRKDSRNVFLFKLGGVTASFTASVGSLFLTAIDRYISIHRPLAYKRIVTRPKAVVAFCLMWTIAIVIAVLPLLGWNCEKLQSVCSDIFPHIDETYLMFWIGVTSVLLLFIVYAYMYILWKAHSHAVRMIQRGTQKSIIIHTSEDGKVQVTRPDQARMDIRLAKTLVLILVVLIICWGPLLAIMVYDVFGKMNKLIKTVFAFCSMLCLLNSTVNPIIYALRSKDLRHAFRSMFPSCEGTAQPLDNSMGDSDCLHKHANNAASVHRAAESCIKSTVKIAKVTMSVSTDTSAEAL
T1 sequence (P47746 whole entry): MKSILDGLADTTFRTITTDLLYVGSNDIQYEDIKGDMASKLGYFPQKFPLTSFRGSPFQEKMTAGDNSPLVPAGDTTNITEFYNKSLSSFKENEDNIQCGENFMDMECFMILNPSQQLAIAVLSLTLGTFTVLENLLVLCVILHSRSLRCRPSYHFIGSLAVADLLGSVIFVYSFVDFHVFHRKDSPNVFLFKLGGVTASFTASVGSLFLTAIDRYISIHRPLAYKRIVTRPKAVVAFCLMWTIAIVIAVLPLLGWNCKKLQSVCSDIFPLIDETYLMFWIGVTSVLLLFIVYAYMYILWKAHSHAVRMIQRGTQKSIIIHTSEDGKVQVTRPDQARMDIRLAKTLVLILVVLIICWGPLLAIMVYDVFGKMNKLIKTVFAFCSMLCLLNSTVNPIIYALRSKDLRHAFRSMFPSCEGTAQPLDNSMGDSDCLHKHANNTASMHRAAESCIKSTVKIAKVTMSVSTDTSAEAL

COC(=O)C(NC(=O)c1cn(CCCCCF)c2ccccc12)C(C)(C)C (stereo not shown) [5F-MDMB-PICA]
pEC50 [1]: 7.20

COC(=O)C(NC(=O)c1cn(CCCCCF)c2ccccc12)C(C)C (stereo not shown) [5F-MMB-PICA]
EC50 [2, 4]: 3.63 µM
EC50 [3, 4]: 2.95 µM
pEC50 [1]: 6.72

O=C(Nc1cccc2ccccc12)c1cn(CCCCCF)c2ccccc12 [5F-NNEI]
EC50 ([2]; read-out: 5F-NNEI): 5.25 µM
EC50 ([3]; read-out: 5F-NNEI (converted)): 4.68 µM

O=C(NCc1ccccc1)c1cn(CCCCCF)c2ccccc12 [5F-SDB-006]
EC50 [2, 5]: 2.45 µM
EC50 [3, 5]: 1.48 µM

O=C(c1cccc2ccccc12)c1cn(CCCCCF)c2ccccc12 [AM2201]
EC50 ([2]; read-out: AM2201 (converted)): 0.759 µM
EC50 ([3]; read-out: AM2201 (converted)): 0.339 µM
